Starred links: 1 amine or outer side, 2 acyl side, 3 side chain; linkers in the order of their positions; H or OH if unused. Positions of bridges follow the written chain, without caps; N, C: chain ends. Non-standard residues stand in square brackets, D forms with d. Residues, ends and D or L forms follow the SMILES beside them. *: point of attachment. hPhe(3-Cl-4-CF3) = N[C@@H](CCc1ccc(C(F)(F)F)c(Cl)c1)C(=O)O; X25 = CN([C@@H](Cc1ccc(C(F)F)cc1)C(=O)[*:2])[*:1]; 3Oxa8azabicyclo(3.2.1)octane = C1CC2COCC1N2*; NMePhe(4-Me) = CN[C@@H](Cc1ccc(C)cc1)C(=O)O; NMePhe(2-Me) = CN[C@@H](Cc1ccccc1C)C(=O)O; NMeAla(cPent) = CN[C@@H](CC1CCCC1)C(=O)O; NMeNva(5,5-F2) = CN[C@@H](CCC(F)F)C(=O)O; NMeGly(cPent) = CN[C@H](C(=O)O)C1CCCC1; NMe4Pal = CN[C@@H](Cc1ccncc1)C(=O)O; NMeCha = CN[C@@H](CC1CCCCC1)C(=O)O; NMeChg = CN[C@H](C(=O)O)C1CCCCC1; NMeI = CC[C@H](C)[C@H](NC)C(=O)O; Gly(cBu) = N[C@H](C(=O)O)C1CCC1; NMeE = CN[C@@H](CCC(=O)O)C(=O)O; NMeD = CN[C@@H](CC(=O)O)C(=O)O; NMeL = CN[C@@H](CC(C)C)C(=O)O; NMeNva = CCC[C@H](NC)C(=O)O; NMeAbu = CC[C@H](NC)C(=O)O; NMeS = CN[C@@H](CO)C(=O)O; Morpholide = C1CN(*)CCO1; NMeA = CN[C@@H](C)C(=O)O; Pyrrolidide = C1CCN(*)C1; Ac5c = NC1(C(=O)O)CCCC1; Aze = O=C(O)[C@@H]1CCN1; Sar = CNCC(=O)O; Propyl = CCC*
Columns and labels:
[1] = system: Human pancreatic cancer cell line AsPC-1; experiment: Measurement of AsPC-1 cell growth inhibition (AsPC-1 CGI); format: cell-based; conditions: 96 h
How it was run: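 AsPC-1 cells in 15% FBS RPMI-1640 were exposed to test compound for 96 hours at 37° C, with CellTiter-Glo as endpoint.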

[2] = target: T1, Kras and SOS1 (biotin-tagged human Kras loaded with GDP, His-tagged human SOS1) (Homo sapiens, UniProt P01116, G12D); experiment: Protein-protein interaction inhibition between Kras and SOS1 (KrasGl2D-SOS PPI) using AlphaScreen; format: binding; conditions: AlphaScreen; biotin-tagged human Kras loaded with GDP, His-tagged human SOS1; read-out: KRAS G12D-SOS PPI IC50
T1 construct: made in house; host or cells: E. coli (stated for Kras only)
How it was run: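 Binding between SOS1 and Kras is detected as bead-proximity luminescence: illuminate Ni-conjugated donors (680 nm), collect 520-620 nm emission from streptavidin-conjugated acceptors; Kras carries biotin and GDP loaded after purification, SOS1 carries a His tag.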

T1 sequence (P01116 1-188 isoform P01116-2 G12D): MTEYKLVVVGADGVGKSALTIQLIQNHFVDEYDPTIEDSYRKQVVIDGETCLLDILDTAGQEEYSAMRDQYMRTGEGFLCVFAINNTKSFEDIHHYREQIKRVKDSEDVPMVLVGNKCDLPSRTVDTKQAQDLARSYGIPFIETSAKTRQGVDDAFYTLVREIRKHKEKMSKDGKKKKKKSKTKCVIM

SMILES | IC50 [1] | IC50 [2]
CCCOC[C@H]1C(=O)N(C)CC(=O)N[C@@H](CCc2ccc(C(F)(F)F)c(Cl)c2)C(=O)N2CCC[C@H]2C(=O)NC2(CCCC2)C(=O)N(C)[C@@H](C2CCCCC2)C(=O)N(C)[C@H](C(=O)N2C3CCC2COC3)CC(=O)N(C)[C@@H](CC(C)C)C(=O)N[C@@H]([C@@H](C)CC)C(=O)N(C)CC(=O)N(C)CC(=O)N1C [Compound 1900] ([NMeL]I[Sar][Sar][NMeS](Propyl)[Sar][hPhe(3-Cl-4-CF3)]P[Ac5c][NMeChg][NMeD]-{3Oxa8azabicyclo(3.2.1)octane}; lactam N-11) | 100 to 500 nM | 0.99 nM
CC[C@H](C)[C@@H]1NC(=O)[C@H](CC)N(C)C(=O)C[C@@H](C(=O)N2C3CCC2COC3)N(C)C(=O)[C@H](C2CCCCC2)N(C)C(=O)C2(CCCC2)NC(=O)[C@@H]2CCCN2C(=O)[C@H](CCc2ccc(C(F)(F)F)c(Cl)c2)NC(=O)CN(C)C(=O)[C@H](CC2CCCCC2)N(C)C(=O)CN(C)C(=O)CN(C)C1=O [Compound 1901] ([NMeAbu]I[Sar][Sar][NMeCha][Sar][hPhe(3-Cl-4-CF3)]P[Ac5c][NMeChg][NMeD]-{3Oxa8azabicyclo(3.2.1)octane}; lactam N-11) | 50 to 100 nM | 0.56 nM
CC[C@H](C)[C@@H]1NC(=O)[C@H](CC)N(C)C(=O)C[C@@H](C(=O)N2CCOCC2)N(C)C(=O)[C@H](C2CCCCC2)N(C)C(=O)C2(CCCC2)NC(=O)[C@@H]2CCCN2C(=O)[C@H](CCc2ccc(C(F)(F)F)c(Cl)c2)NC(=O)CN(C)C(=O)[C@H](Cc2ccc(C)cc2)N(C)C(=O)CN(C)C(=O)CN(C)C1=O [Compound 1904] ([NMeAbu]I[Sar][Sar][NMePhe(4-Me)][Sar][hPhe(3-Cl-4-CF3)]P[Ac5c][NMeChg][NMeD]-Morpholide; lactam N-11) | 20 to 50 nM | 0.57 nM
CC[C@H](C)[C@@H]1NC(=O)[C@H](CC)N(C)C(=O)C[C@@H](C(=O)N2CCCC2)N(C)C(=O)[C@H](C2CCCCC2)N(C)C(=O)C2(CCCC2)NC(=O)[C@@H]2CCCN2C(=O)[C@H](CCc2ccc(C(F)(F)F)c(Cl)c2)NC(=O)CN(C)C(=O)[C@H](Cc2ccc(C)cc2)N(C)C(=O)CN(C)C(=O)CN(C)C1=O [Compound 1905] ([NMeAbu]I[Sar][Sar][NMePhe(4-Me)][Sar][hPhe(3-Cl-4-CF3)]P[Ac5c][NMeChg][NMeD]-Pyrrolidide; lactam N-11) | 20 to 50 nM | 0.33 nM
CC(C)C[C@H]1C(=O)N[C@@H](C2CCC2)C(=O)N(C)CC(=O)N(C)CC(=O)N(C)[C@@H](CC2CCCCC2)C(=O)N(C)CC(=O)N[C@@H](CCc2ccc(C(F)(F)F)c(Cl)c2)C(=O)N2CCC[C@H]2C(=O)NC2(CCCC2)C(=O)N(C)[C@@H](C2CCCCC2)C(=O)N(C)[C@H](C(=O)N2CCOCC2)CC(=O)N1C [Compound 1906] ([NMeL][Gly(cBu)][Sar][Sar][NMeCha][Sar][hPhe(3-Cl-4-CF3)]P[Ac5c][NMeChg][NMeD]-Morpholide; lactam N-11) | 50 to 100 nM | 0.55 nM
CC[C@H](C)[C@@H]1NC(=O)[C@H](CC(C)C)N(C)C(=O)C[C@@H](C(=O)N(C)C)N(C)C(=O)[C@H](C2CCCC2)N(C)C(=O)C2(CCCC2)NC(=O)[C@H](CCC(F)F)N(C)C(=O)[C@H](CCc2ccc(C(F)(F)F)c(Cl)c2)NC(=O)CN(C)C(=O)[C@H](CC2CCCCC2)N(C)C(=O)[C@@H]2CCN2C(=O)[C@H](C)N(C)C1=O [Compound 1907] ([NMeL]I[NMeA][Aze][NMeCha][Sar][hPhe(3-Cl-4-CF3)][NMeNva(5,5-F2)][Ac5c][NMeGly(cPent)][NMeD]-NMe2; lactam N-11) | 20 to 50 nM | 1.3 nM
CC(C)C[C@H]1C(=O)N[C@@H](C(C)C)C(=O)N(C)CC(=O)N(C)CC(=O)N(C)[C@@H](CC2CCCCC2)C(=O)N(C)CC(=O)N[C@@H](CCc2ccc(C(F)(F)F)c(Cl)c2)C(=O)N2CCC[C@H]2C(=O)NC2(CCCC2)C(=O)N(C)[C@@H](C2CCCCC2)C(=O)N(C)[C@H](C(=O)N2CCOCC2)CC(=O)N1C [Compound 1908] ([NMeL]V[Sar][Sar][NMeCha][Sar][hPhe(3-Cl-4-CF3)]P[Ac5c][NMeChg][NMeD]-Morpholide; lactam N-11) | 50 to 100 nM | 0.65 nM
CC[C@H](C)[C@@H]1NC(=O)[C@H](CC(C)C)N(C)C(=O)C[C@@H](C(=O)N(C)C)N(C)C(=O)[C@H]([C@@H](C)CC)N(C)C(=O)C2(CCCC2)NC(=O)[C@H](CCC(=O)NC)N(C)C(=O)[C@H](CCc2ccc(C(F)(F)F)c(Cl)c2)NC(=O)CN(C)C(=O)[C@H](Cc2ccc(C)cc2)N(C)C(=O)[C@@H]2CCN2C(=O)[C@H](C)N(C)C1=O [Compound 1911] ([NMeL]I[NMeA][Aze][NMePhe(4-Me)][Sar][hPhe(3-Cl-4-CF3)][NMeE](NHMe)[Ac5c][NMeI][NMeD]-NMe2; lactam N-11) | 50 to 100 nM | 0.67 nM
CC[C@H](C)[C@@H]1NC(=O)[C@H](CC(C)C)N(C)C(=O)C[C@@H](C(=O)N(C)C)N(C)C(=O)[C@H](C2CCCC2)N(C)C(=O)C2(CCCC2)NC(=O)[C@H](Cc2ccncc2)N(C)C(=O)[C@H](CCc2ccc(C(F)(F)F)c(Cl)c2)NC(=O)CN(C)C(=O)[C@H](CC2CCCCC2)N(C)C(=O)[C@@H]2CCN2C(=O)[C@H](C)N(C)C1=O [Compound 1913] ([NMeL]I[NMeA][Aze][NMeCha][Sar][hPhe(3-Cl-4-CF3)][NMe4Pal][Ac5c][NMeGly(cPent)][NMeD]-NMe2; lactam N-11) | 100 to 500 nM | 1.1 nM
CC[C@H](C)[C@@H]1NC(=O)[C@H](CC)N(C)C(=O)C[C@@H](C(=O)N2CCOCC2)N(C)C(=O)[C@H](C2CCCCC2)N(C)C(=O)C2(CCCC2)NC(=O)[C@@H]2CCCN2C(=O)[C@H](CCc2ccc(C(F)(F)F)c(Cl)c2)NC(=O)CN(C)C(=O)[C@H](CC2CCCCC2)N(C)C(=O)CN(C)C(=O)CN(C)C1=O [Compound 1915] ([NMeAbu]I[Sar][Sar][NMeCha][Sar][hPhe(3-Cl-4-CF3)]P[Ac5c][NMeChg][NMeD]-Morpholide; lactam N-11) | 50 to 100 nM | 0.38 nM
CCC[C@H]1C(=O)N[C@@H]([C@@H](C)CC)C(=O)N(C)CC(=O)N(C)CC(=O)N(C)[C@@H](CC2CCCC2)C(=O)N(C)CC(=O)N[C@@H](CCc2ccc(C(F)(F)F)c(Cl)c2)C(=O)N2CCC[C@H]2C(=O)NC2(CCCC2)C(=O)N(C)[C@@H](C2CCCCC2)C(=O)N(C)[C@H](C(=O)N2C3CCC2COC3)CC(=O)N1C [Compound 1916] ([NMeNva]I[Sar][Sar][NMeAla(cPent)][Sar][hPhe(3-Cl-4-CF3)]P[Ac5c][NMeChg][NMeD]-{3Oxa8azabicyclo(3.2.1)octane}; lactam N-11) | 100 to 500 nM | 0.99 nM
CC[C@H](C)[C@@H]1NC(=O)[C@H](CC(C)C)N(C)C(=O)C[C@@H](C(=O)N(C)C)N(C)C(=O)[C@H](C2CCCC2)N(C)C(=O)C2(CCCC2)NC(=O)[C@H](CCC(=O)NC)N(C)C(=O)[C@H](CCc2ccc(C(F)(F)F)c(Cl)c2)NC(=O)CN(C)C(=O)[C@H](CC2CCCCC2)N(C)C(=O)[C@@H]2CCN2C(=O)[C@H](C)N(C)C1=O [Compound 1921] ([NMeL]I[NMeA][Aze][NMeCha][Sar][hPhe(3-Cl-4-CF3)][NMeE](NHMe)[Ac5c][NMeGly(cPent)][NMeD]-NMe2; lactam N-11) | 100 to 500 nM | 0.83 nM
CC[C@H](C)[C@@H]1NC(=O)[C@H](CC(C)C)N(C)C(=O)C[C@@H](C(=O)N2CCOCC2)N(C)C(=O)[C@H](C2CCCCC2)N(C)C(=O)C2(CCCC2)NC(=O)[C@@H]2CCCN2C(=O)[C@H](CCc2ccc(C(F)(F)F)c(Cl)c2)NC(=O)CN(C)C(=O)[C@H](CC2CCCC2)N(C)C(=O)CN(C)C(=O)CN(C)C1=O [Compound 1923] ([NMeL]I[Sar][Sar][NMeAla(cPent)][Sar][hPhe(3-Cl-4-CF3)]P[Ac5c][NMeChg][NMeD]-Morpholide; lactam N-11) | 50 to 100 nM | 0.89 nM
CC[C@H](C)[C@@H]1NC(=O)[C@H](CC(C)C)N(C)C(=O)C[C@@H](C(=O)N(C)C)N(C)C(=O)[C@H]([C@@H](C)CC)N(C)C(=O)C2(CCCC2)NC(=O)[C@H](Cc2ccccc2C)N(C)C(=O)[C@H](CCc2ccc(C(F)(F)F)c(Cl)c2)NC(=O)CN(C)C(=O)[C@H](Cc2ccc(C)cc2)N(C)C(=O)[C@@H]2CCN2C(=O)[C@H](C)N(C)C1=O [Compound 1924] ([NMeL]I[NMeA][Aze][NMePhe(4-Me)][Sar][hPhe(3-Cl-4-CF3)][NMePhe(2-Me)][Ac5c][NMeI][NMeD]-NMe2; lactam N-11) | 100 to 500 nM | 5.1 nM
CC[C@H](C)[C@@H]1NC(=O)[C@H](CC(C)C)N(C)C(=O)C[C@@H](C(=O)N(C)C)N(C)C(=O)[C@H](C2CCCC2)N(C)C(=O)C2(CCCC2)NC(=O)[C@H](Cc2ccc(C(F)F)cc2)N(C)C(=O)[C@H](CCc2ccc(C(F)(F)F)c(Cl)c2)NC(=O)CN(C)C(=O)[C@H](CC2CCCCC2)N(C)C(=O)[C@@H]2CCN2C(=O)[C@H](C)N(C)C1=O [Compound 1926] ([NMeL]I[NMeA][Aze][NMeCha][Sar][hPhe(3-Cl-4-CF3)][X25][Ac5c][NMeGly(cPent)][NMeD]-NMe2; lactam N-11) | 100 to 500 nM | 21 nM
CC(C)C[C@H]1C(=O)N[C@@H](C(C)C)C(=O)N(C)CC(=O)N(C)CC(=O)N(C)[C@@H](CC2CCCCC2)C(=O)N(C)CC(=O)N[C@@H](CCc2ccc(C(F)(F)F)c(Cl)c2)C(=O)N2CCC[C@H]2C(=O)NC2(CCCC2)C(=O)N(C)[C@@H](C2CCCCC2)C(=O)N(C)[C@H](C(=O)N2C3CCC2COC3)CC(=O)N1C [Compound 1928] ([NMeL]V[Sar][Sar][NMeCha][Sar][hPhe(3-Cl-4-CF3)]P[Ac5c][NMeChg][NMeD]-{3Oxa8azabicyclo(3.2.1)octane}; lactam N-11) | 100 to 500 nM | 0.5 nM
